Common to all, as to assay type: in vivo
Test [1] has as its system Myzus persicae (Green Peach Aphid). Kind of test: Activity against Myzus persicae (green peach aphid), sunflower leaf disc spray test. The settings on record: foliar, 144 h, read-out: activity (mortality) against Myzus persicae. The source says:
Activity Against Myzus persicae (Green Peach Aphid)

Test [2] concerns Spodoptera littoralis (Egyptian Cotton Leaf Worm). Kind of test: Activity against Spodoptera littoralis (Egyptian cotton leaf worm), systemic lettuce test. The conditions noted are these: 120 h, systemic via lettuce roots, 5 days after infestation, read-out: activity (mortality, repellent effect, feeding behavior, growth regulation) against Spodoptera littoralis. The source says:
Activity Against Spodoptera littoralis (Egyptian Cotton Leaf Worm)
Test compounds were applied by pipette into 24 well plates and mixed with agar. Lettuce seeds were placed on the agar and the multi well plate is closed by another plate which contains also agar. After 7 days the roots have absorbed the compound and the lettuce has grown into the lid plate. The lettuce leafs were now cut off into the lid plate. Spodoptera eggs were pipetted through a plastic stencil on a humid gel blotting paper and the plate closed with it. The samples are checked for mortality, repellent effect, feeding behavior, and growth regulation 5 days after infestation.

Test [3] concerns Bemisia tabaci (Cotton White Fly). Kind of test: Activity against Bemisia tabaci (cotton white fly), cotton leaf disc spray test. The conditions noted are these: foliar, 144 h, read-out: activity (mortality and special effects) against Bemisia tabaci. The procedure:
Activity Against Bemisia tabaci (Cotton White Fly)
Cotton leaf discs were placed on agar in a 24-well microtiter plate and sprayed with test solutions. After drying, the leaf discs were infested with 12 to 18 adults. After an incubation period of 6 days after infestation, samples were checked for mortality and special effects (e.g. phytotoxicity).

Test [4] concerns Tetranychusurticae (Two-Spotted Spider Mite). Briefly: whole plant or invertebrate. The conditions noted are these: Tetranychus urticae, foliar, 192 h, read-out: activity (egg, larval and adult mortality) against Tetranychus urticae. An excerpt: Activity Against Tetranychusurticae (Two-Spotted Spider Mite)
Bean leaf discs on agar in 24-well microtiter plates are sprayed with test solutions. After drying, the leaf discs are infested with mite populations of mixed ages. 8 days later, discs are checked for egg mortality, larval mortality, and adult mortality.

For test [5], the system named is Anopheles stephensi (Indian Malaria Mosquito). Kind of test: Anopheles stephensi (Indian malaria mosquito) contact test on treated plates. The conditions noted are these: 200 ppm in ethanol, adult females, after 48 h and/or 24 h, read-out: control of Anopheles stephensi (mortality). The procedure: Anopheles stephensi (Indian Malaria Mosquito)
Test solutions, at an application rate of 200 ppm in ethanol, were applied to 12 well tissue culture plates. Once the deposits were dry, five, two to five day old adult female Anopheles stephensi were added to each well, and sustained with a 10% sucrose solution in a cotton wool plug. Mortality was assessed at 24 and 48 hours after introduction. The following compounds gave at least 80% control of Anopheles stephensi after 48 h and/or 24 h: No. 1.026 and 1.030.

The test system of test [6] is Aedes aegypti (Yellow Fever Mosquito). Kind of test: whole plant or invertebrate. The settings on record: 200 ppm in ethanol, adult females, after 48 h and/or 24 h, read-out: control of Aedes aegypti (mortality). The procedure:
Aedes aegypti (Yellow Fever Mosquito)
Test solutions, at an application rate of 200 ppm in ethanol, were applied to 12 well tissue culture plates. Once the deposits were dry, five, two to five day old adult female Aedes aegypti were added to each well, and sustained with a 10% sucrose solution in a cotton wool plug. Mortality was assessed at 24 and 48 hours after introduction. The following compounds gave at least 80% control of Aedes aegypti after 48 h and/or 24 h: No. 1.026, 1.027, 1.030 and 1.025.

In test [7] the test system is Heliothis virescens (Tobacco Budworm). Briefly: Activity against Heliothis virescens (tobacco budworm), eggs on artificial diet. The conditions noted are these: eggs 0-24 h old, 4 days incubation, read-out: activity (egg mortality, larval mortality, growth regulation) against Heliothis virescens. The procedure:
Activity Against Heliothis virescens (Tobacco Budworm)
Eggs (0-24 h old) are placed in 24-well microtiter plate on artificial diet and treated with test solutions by pipetting. After an incubation period of 4 days, samples are checked for egg mortality, larval mortality, and growth regulation.

[8] abbreviates: 200 ppm, mixed-age aphid population, 6 days incubation.
The mark [9] stands for this setting: 200 ppm, adults, 6 days after infestation.

We go through 37 molecules from US9133218B2, “Pesticidally active pyridyl- and pyrimidyl-substituted thiazole derivatives” (Syngenta Participations AG, priority 2012, dated 2015).

By mortality is commonly meant the share of the test organisms that died.

Read-outs that look alike come from different tables or passages of the source.

As to `Cc1nc(-c2cccnc2)sc1-c1ccc2c(n1)/C(=N/OCCc1ccc(F)cc1)CCC2` [Compound 1.053], the mortality at 200 ppm in test [1] (setting [8]) is over 80%. The mortality at 12.5 ppm in test [2] is over 80%.
Turning to `Cc1nc(-c2cccnc2)sc1-c1ccc2c(n1)/C(=N/NC(C)(C)C)CCC2` [Compound 6.035], in test [1] (setting [8]), the mortality at 200 ppm is over 80%.
Turning to `CO/N=C1\CCOc2ccc(-c3sc(-c4cccnc4)nc3C)nc21` [Compound 1.032, N-methoxy-6-[4-methyl-2-(3-pyridyl)thiazol-5-yl]-2,3-dihydropyrano[3,2-b]pyridin-4-imine], the mortality at 200 ppm in test [3] (setting [9]) and in test [1] (setting [8]) was over 80% each time.
With `CCO/N=C1\CCCc2ccc(-c3cnc(-c4cccnc4)s3)nc21` [Compound 1.003], the mortality at 200 ppm in test [3] (setting [9]) and in test [1] (setting [8]) was over 80% each time.
In the case of `C=CCO/N=C1\CCOc2ccc(-c3sc(-c4cccnc4)nc3C)nc21` [Compound 1.036], the mortality at 200 ppm in test [3] (setting [9]) and in test [1] (setting [8]) was over 80% throughout.
On to `CCO/N=C1\CCOc2ccc(-c3sc(-c4cccnc4)nc3C)nc21` [Compound 1.033], for which the mortality at 200 ppm in test [3] (setting [9]) and in test [1] (setting [8]) was over 80% throughout.
In the case of `Cc1nc(-c2cccnc2)sc1-c1ccc2c(n1)/C(=N/OCCCc1ccccc1)CCC2` [Compound 1.049], the mortality at 200 ppm in test [3] (setting [9]) and in test [1] (setting [8]) was over 80% in each case.
As to `Cc1nc(-c2cccnc2)sc1-c1ccc2c(n1)/C(=N/OCC1CCCCC1)CCC2` [Compound 1.064], the mortality at 200 ppm in test [1] (setting [8]) was over 80%.
As to `Cc1nc(-c2cccnc2)sc1-c1ccc2c(n1)/C(=N/OCC(F)F)CCC2` [Compound 1.050], the mortality at 200 ppm in test [1] (setting [8]) is over 80%. Also, the mortality at 12.5 ppm in test [2] was over 80%.
As for `CCO/N=C1\CCSc2sc(-c3sc(-c4cccnc4)nc3C)nc21` [Compound 3.051], the mortality at 200 ppm in test [3] (setting [9]) and in test [1] (setting [8]) was over 80% throughout.
Turning to `Cc1nc(-c2cccnc2)sc1-c1ccc2c(n1)/C(=N/OC(C)C)CCO2` [Compound 1.035], the mortality at 200 ppm in test [3] (setting [9]) and in test [1] (setting [8]) was over 80% each time.
For the molecule `CO/N=C1\CCSc2sc(-c3sc(-c4cccnc4)nc3C)nc21` [Compound 3.050, N-methoxy-2-[4-methyl-2-(3-pyridyl)thiazol-5-yl]-5,6-dihydrothiopyrano[3,2-d]thiazol-7-imine], the mortality at 200 ppm in test [3] (setting [9]) and in test [1] (setting [8]) was over 80% each time.
Consider `CN/N=C1\CCCc2ccc(-c3sc(-c4cccnc4)nc3C)nc21` [Compound 6.009], for which the mortality at 200 ppm in test [1] (setting [8]) is over 80%.
Same read-out and setting: with `Cc1nc(-c2cccnc2)sc1-c1ccc2c(n1)/C(=N/NCC(F)(F)F)CCC2` [Compound 6.032] the figure was over 80%.
With `COC(=O)N/N=C1\CCCc2ccc(-c3sc(-c4cccnc4)nc3C)nc21` [Compound 6.011, Methyl N-[(E)-[2-[4-methyl-2-(3-pyridyl)thiazol-5-yl]-6,7-dihydro-5H-quinolin-8-ylidene]amino]carbamate], the mortality at 200 ppm in test [3] (setting [9]) and in test [1] (setting [8]) was over 80% each time.
As for `Cc1nc(-c2cccnc2)sc1-c1ccc2c(n1)/C(=N/OCC#Cc1ccccc1)CCC2` [Compound 1.063], the mortality at 200 ppm in test [4] and in test [1] (setting [8]) was over 80% each time.
In the case of `C=CCO/N=C1\CCSc2sc(-c3sc(-c4cccnc4)nc3C)nc21` [Compound 3.053], the mortality at 200 ppm in test [3] (setting [9]) and in test [1] (setting [8]) was over 80% each time.
With `C=CCO/N=C1\CCCc2ccc(-c3sc(-c4cccnc4)nc3C)nc21` [Compound 1.030], the mortality at 200 ppm in test [3] (setting [9]) was over 80%; in test [5], at least 80%; in test [6], at least 80%; in test [1] (setting [8]), over 80%.
As for `CO/N=C1\CCCc2ccc(-c3sc(-c4cccnc4)nc3C)nc21` [Compound 1.026], the mortality at 200 ppm is over 80% in test [3] (setting [9]), at least 80% in test [5], at least 80% in test [6] and over 80% in test [1] (setting [8]).
For `COC(=O)N/N=C1\CCOc2ccc(-c3sc(-c4cccnc4)nc3C)nc21` [Compound 6.018], the mortality at 200 ppm in test [3] (setting [9]) is over 80%.
Consider `Cc1nc(-c2cccnc2)sc1-c1ccc2c(n1)/C(=N/Nc1ccc(F)cc1)CCC2` [Compound 6.029], for which, in test [1] (setting [8]), the mortality at 200 ppm was over 80%.
With `CCCO/N=C1\CCCc2ccc(-c3sc(-c4cccnc4)nc3C)nc21` [Compound 1.028], the mortality at 200 ppm in test [3] (setting [9]), in test [4] and in test [1] (setting [8]) was over 80% throughout.
On to `Cc1nc(-c2cccnc2)sc1-c1ccc2c(n1)/C(=N/OCC1OCCO1)CCC2` [Compound 1.066], for which, in test [1] (setting [8]), the mortality at 200 ppm was over 80%.
As to `Cc1nc(-c2cccnc2)sc1-c1ccc2c(n1)/C(=N/OC(C)C)CCC2` [Compound 1.029], the mortality at 200 ppm in test [3] (setting [9]) and in test [1] (setting [8]) was over 80% throughout.
Consider `Cc1nc(-c2cccnc2)sc1-c1ccc2c(n1)/C(=N/OCc1ccc(Cl)cc1)CCC2` [Compound 1.062], for which, in test [1] (setting [8]), the mortality at 200 ppm is over 80%.
`Cc1nc(-c2cccnc2)sc1-c1ccc2c(n1)/C(=N/OCc1cc(C(F)(F)F)cc(C(F)(F)F)c1)CCC2` [Compound 1.067]: the mortality at 12.5 ppm in test [2] was over 80%.
For `COC(=O)N(C)/N=C1\CCOc2ccc(-c3sc(-c4cccnc4)nc3C)nc21` [Compound 6.019], the mortality at 200 ppm in test [3] and in test [1] was over 80% throughout.
For the molecule `Cc1nc(-c2cccnc2)sc1-c1ccc2c(n1)/C(=N/OCCSc1ccc(F)cc1)CCC2` [Compound 1.065], the mortality at 200 ppm in test [7] was over 80%.
In the case of `CN/N=C1\CCOc2ccc(-c3sc(-c4cccnc4)nc3C)nc21` [Compound 6.016], the mortality at 200 ppm in test [1] (setting [8]) is over 80%.
Consider `Cc1nc(-c2cccnc2)sc1-c1ccc2c(n1)/C(=N/OCc1ccccc1)CCC2` [Compound 1.068], for which, in test [1] (setting [8]), the mortality at 200 ppm was over 80%.
Turning to `Cc1nc(-c2cccnc2)sc1-c1ccc2c(n1)/C(=N\NCC(F)(F)F)CCC2` [Compound 6.033], the mortality at 200 ppm in test [1] (setting [8]) and in test [7] was over 80% in each case.
In the case of `COc1ccc(N/N=C2\CCCc3ccc(-c4sc(-c5cccnc5)nc4C)nc32)cc1` [Compound 6.034], in test [1] (setting [8]), the mortality at 200 ppm is over 80%.
On to `Cc1nc(-c2cccnc2)sc1-c1ccc2c(n1)/C(=N/O)CCC2` (single isomer, unassigned) [Compound 1.025, 2-[4-methyl-2-(3-pyridyl)thiazol-5-yl]-6,7-dihydro-5H-quinolin-8-one oxime], for which the figures for the mortality at 200 ppm in test [3] (setting [9]), in test [6] and in test [1] (setting [8]) were over 80%, at least 80% and over 80%, respectively.
Turning to `CCO/N=C1\CCCc2ccc(-c3sc(-c4cccnc4)nc3C)nc21` [Compound 1.027], the mortality at 200 ppm in test [3] (setting [9]) was over 80%; in test [6] it was at least 80%; in test [1] (setting [8]), over 80%.
Consider `Cc1nc(-c2cccnc2)sc1-c1ccc2c(n1)/C(=N/OCCC1CCCN1C)CCC2` (centres unmarked) [Compound 1.054], for which, in test [1] (setting [8]), the mortality at 200 ppm is over 80%.
The same measure, in the same setting: as for `Cc1nc(-c2cccnc2)sc1-c1ccc2c(n1)/C(=N/OCCCC1OCCO1)CCC2` [Compound 1.051], the figure is over 80%.
Take `Cc1nc(-c2cccnc2)sc1-c1ccc2c(n1)/C(=N/N(C)S(C)(=O)=O)CCO2` [Compound 6.021]: in test [3] (setting [9]), the mortality at 200 ppm is over 80%.
